Converted amounts (≈) assume the structure as drawn.

The text below walks through data of ChEMBL document CHEMBL1139752, “New rifabutin analogs: synthesis and biological activity against Mycobacterium tuberculosis” (2006).

Holding throughout (type): functional
Assay [1] relates to Mycobacterium tuberculosis. In words: Antimycobacterial activity against rifampicin and rifabutin resistant Mycobacterium tuberculosis ATCC 35838.
Assay [2] concerns Mycobacterium tuberculosis. In words: Antimycobacterial activity against streptomycin resistant Mycobacterium tuberculosis ATCC 35820.
The subject of assay [3] is Mycobacterium tuberculosis. As to the kind of experiment: Antimycobacterial activity against ethambutol resistant Mycobacterium tuberculosis ATCC 35837.
The subject of assay [4] is Mycobacterium tuberculosis. As to the kind of experiment: Antimycobacterial activity against rifampicin and rifabutin resistant Mycobacterium tuberculosis.
The test system of assay [5] is Mycobacterium tuberculosis. In words: Antimycobacterial activity against isoniazid resistant Mycobacterium tuberculosis ATCC 35822.

A word on the MIC: it is the least concentration at which growth counts as inhibited. Low values mean greater potency, high ones weaker potency. In the case of `C=CCN1[C@@H](c2ccccc2)C[C@@]2(C[C@H]1c1ccccc1)N=C1C(=C3NC(=O)/C(C)=C\C=C\[C@H](C)[C@H](O)[C@@H](C)[C@H](O)[C@H](C)[C@H](OC(C)=O)[C@H](C)[C@@H](OC)/C=C/O[C@@]4(C)Oc5c(C)c(O)c(c1c5C4=O)C3=O)N2`, the MIC in assay [1] is above 1 µg/mL; in assay [2], 0.02 µg/mL (≈ 0.0203 µM); in assay [3] it was 0.02 µg/mL (≈ 0.0203 µM); in assay [4], above 1 µg/mL; in assay [5] it was 0.02 µg/mL (≈ 0.0203 µM).
On to `CO[C@H]1/C=C/O[C@@]2(C)Oc3c(C)c(O)c4c(c3C2=O)C2=NC3(CCN(CC(C)C)CC3)NC2=C(NC(=O)/C(C)=C\C=C\[C@H](C)[C@H](O)[C@@H](C)[C@@H](O)[C@@H](C)[C@H](OC(C)=O)[C@@H]1C)C4=O` [RIFABUTIN], for which the minimal inhibitory concentration (MIC) is above 5 µg/mL in assay [1]; 0.02 µg/mL (≈ 0.0236 µM) in assay [2]; 0.02 µg/mL (≈ 0.0236 µM) in assay [3]; above 5 µg/mL in assay [4]; 0.02 µg/mL (≈ 0.0236 µM) in assay [5].
Consider `C=CCCN1[C@@H](c2ccccc2)C[C@@]2(C[C@H]1c1ccccc1)N=C1C(=C3NC(=O)/C(C)=C\C=C\[C@H](C)[C@H](O)[C@@H](C)[C@H](O)[C@H](C)[C@H](OC(C)=O)[C@H](C)[C@@H](OC)/C=C/O[C@@]4(C)Oc5c(C)c(O)c(c1c5C4=O)C3=O)N2`, for which the minimal inhibitory concentration (MIC) is above 1 µg/mL in assay [1]; 0.02 µg/mL (≈ 0.0201 µM) in assay [2]; 0.02 µg/mL (≈ 0.0201 µM) in assay [3]; above 1 µg/mL in assay [4]; 0.02 µg/mL (≈ 0.0201 µM) in assay [5].
With `CCCCN1[C@@H](c2ccccc2)C[C@@]2(C[C@H]1c1ccccc1)N=C1C(=C3NC(=O)/C(C)=C\C=C\[C@H](C)[C@H](O)[C@@H](C)[C@H](O)[C@H](C)[C@H](OC(C)=O)[C@H](C)[C@@H](OC)/C=C/O[C@@]4(C)Oc5c(C)c(O)c(c1c5C4=O)C3=O)N2`, the MIC in assay [1] was 1 µg/mL (≈ 1 µM); in assay [2] it was 0.02 µg/mL (≈ 0.02 µM); in assay [3], 0.02 µg/mL (≈ 0.02 µM); in assay [4], above 1 µg/mL; in assay [5], 0.02 µg/mL (≈ 0.02 µM).
For `CO[C@H]1/C=C/O[C@@]2(C)Oc3c(C)c(O)c4c(c3C2=O)C2=N[C@]3(C[C@@H](c5ccccc5)N[C@@H](c5ccccc5)C3)NC2=C(NC(=O)/C(C)=C\C=C\[C@H](C)[C@H](O)[C@@H](C)[C@H](O)[C@H](C)[C@H](OC(C)=O)[C@@H]1C)C4=O`, the MIC in assay [1] is 1 µg/mL (≈ 1.06 µM); in assay [2], 0.02 µg/mL (≈ 0.0212 µM); in assay [3], 0.02 µg/mL (≈ 0.0212 µM); in assay [4], above 1 µg/mL; in assay [5], 0.02 µg/mL (≈ 0.0212 µM).
As to `CO[C@H]1/C=C/O[C@@]2(C)Oc3c(C)c(O)c4c(O)c(c(/C=N/N5CCN(C)CC5)c(O)c4c3C2=O)NC(=O)/C(C)=C\C=C\[C@H](C)[C@H](O)[C@@H](C)[C@@H](O)[C@@H](C)[C@H](OC(C)=O)[C@@H]1C` [RIFAMPIN], the MIC in assay [1] is above 5 µg/mL; in assay [2], 0.02 µg/mL (≈ 0.0243 µM); in assay [3], 0.02 µg/mL (≈ 0.0243 µM); in assay [4] it was above 5 µg/mL; in assay [5] it was 0.02 µg/mL (≈ 0.0243 µM).
For the compound `CO[C@H]1/C=C/O[C@@]2(C)Oc3c(C)c(O)c4c(c3C2=O)C2=N[C@@]3(C[C@@H](c5ccc(F)cc5)N[C@@H](c5ccc(F)cc5)C3)NC2=C(NC(=O)/C(C)=C\C=C\[C@H](C)[C@H](O)[C@@H](C)[C@H](O)[C@H](C)[C@H](OC(C)=O)[C@@H]1C)C4=O`, the minimal inhibitory concentration (MIC) in assay [1] was 0.5 µg/mL (≈ 0.511 µM); in assay [2] it was 0.02 µg/mL (≈ 0.0204 µM); in assay [3], 0.02 µg/mL (≈ 0.0204 µM); in assay [4] it was 0.3 µg/mL (≈ 0.306 µM); in assay [5], 0.02 µg/mL (≈ 0.0204 µM).
`CO[C@H]1/C=C/O[C@@]2(C)Oc3c(C)c(O)c4c(c3C2=O)C2=N[C@@]3(C[C@@H](c5ccccc5)N[C@@H](c5ccccc5)C3)NC2=C(NC(=O)/C(C)=C\C=C\[C@H](C)[C@H](O)[C@@H](C)[C@H](O)[C@H](C)[C@H](OC(C)=O)[C@@H]1C)C4=O`: the MIC in assay [1] was 0.5 µg/mL (≈ 0.53 µM); in assay [2] it was 0.02 µg/mL (≈ 0.0212 µM); in assay [3], 0.02 µg/mL (≈ 0.0212 µM); in assay [4], 0.3 µg/mL (≈ 0.318 µM); in assay [5], 0.02 µg/mL (≈ 0.0212 µM).
With `COc1ccc([C@@H]2C[C@]3(C[C@H](c4ccc(OC)cc4)N2)N=C2C(=C4NC(=O)/C(C)=C\C=C\[C@H](C)[C@H](O)[C@@H](C)[C@H](O)[C@H](C)[C@H](OC(C)=O)[C@H](C)[C@@H](OC)/C=C/O[C@@]5(C)Oc6c(C)c(O)c(c2c6C5=O)C4=O)N3)cc1`, the MIC in assay [1] was 1 µg/mL (≈ 0.997 µM); in assay [2], 0.02 µg/mL (≈ 0.0199 µM); in assay [3] it was 0.02 µg/mL (≈ 0.0199 µM); in assay [4], above 1 µg/mL; in assay [5], 0.02 µg/mL (≈ 0.0199 µM).
